{"source": "patent US20250367240A1", "about": "“DERIVATION OF GLUCOSE-RESPONSIVE INSULIN-SECRETING CELLS AND ORGANOIDS FROM HUMAN STOMACH CELLS AND THEIR USE TO TREAT DIABETES” (CORNELL UNIVERSITY, priority 2022, published 2025)", "type_in_all_cases": "cell-based, human", "key": {"GINS organoids [1]": {"tested_on": "GINS organoids", "experiment": "Dynamic GSIS with perifusion", "conditions": "day-21 organoids, two donors; 100 ng/mL Liraglutide in 20 mM glucose; 30 mM KCl in 2 mM glucose", "description": "Twenty GINS organoids were sampled for each group. Organoids were washed with RPMIN and equilibrated in 1 mM glucose RPMIN for 2 hours at 37° C. incubator. The assay was performed in RPMIN on a temperature-controlled (37° C.) perifusion system (Biorep Technologies). Organoids were loaded in chambers and perfused at a flow rate of 100 μL/min in the following steps: (1) 48 min in 1 mM glucose, (2) 24 min in 2 mM glucose. (3) 36 min in 20 mM glucose, (4) 24 min in 20 mM glucose with 100 ng/mL Liraglutide (Cayman, 24727), (5) 48 min in 2 mM glucose, (6) 20 min in 2 mM glucose with 30 mM KCl. Secreted insulin was measured using the Stellux Chemi Human Insulin ELISA."}, "GINS organoids [2]": {"tested_on": "GINS organoids", "experiment": "Static glucose-stimulated insulin secretion (GSIS)", "conditions": "day-18 organoids donor #6; 10 nM glibenclamide or 0.5 mM diazoxide", "description": "Ten to twenty GINS organoids were sampled for each group. Organoids were washed with RPMI-1640 no nutrient medium (RPMIN, MyBioSource, MBS652918), and equilibrated in 3.3 mM glucose RPMIN for 2 hours. Organoids were incubated in low-glucose RPMIN for 1 hour, and supernatant was collected. Organoids were then incubated in high-glucose RPMIN for 1 hour, and supernatant was collected. For sequential glucose challenge, organoids were washed 2 times in RPMIN prior to the next stimulation. Secreted insulin was measured using the Stellux Chemi Human Insulin ELISA (ALPCO Diagnostics, 80-INSHU-CH10)."}, "Ngn3ER/PM-hGSCs": {"tested_on": "Ngn3ER/PM-hGSCs", "experiment": "Supplement screen to formulate serum-free medium for GINS differentiation", "conditions": "day-7 post differentiation; for INS mRNA levels: single supplement in serum-free basal medium", "description": "Ngn3ER/PM-hGSCs were seeded 5 days prior to differentiation in 96-well plate. To start differentiation, 1 μM 4-OH-TAM was added and incubated for 2 days. The culture medium was then changed to serum-free basal medium with one supplement and Doxycycline to activate Pdx1-Mafa expression. The basal serum-free medium for screens was prepared as follows: advanced DMEM/F12 (Thermo Fisher Scientific, 12634010) was supplemented with 10 mM HEPES (Thermo Fisher Scientific, 15-630-080), 1× GlutaMAX (Thermo Fisher Scientific, 35050061), 1× B-27 (Themo Fisher Scientific, 17504044), 1× N-2 (Thermo Fisher Scientific, 17502048), 25 μM Primocin, and 500 μM N-Acetyl-L-Cysteine (NAC) (Sigma-Aldrich, A9165). Seven days after supplement treatment, the following were (1) spontaneous clustering of nascent GINS cells by live imaging of mCherry^+ cells, and (2) qPCR of INS mRNA levels. Then multiple b-cell markers with qPCR on samples treated with Nicotinamide, Y-27632 and A8301 were analyzed."}}, "note": "Entries after “also recorded” stand apart in the source; their conditions may differ.", "data": [{"smiles": "[Cl-].[K+]", "note": "[KCl]", "values": [{"measurement": "insulin secretion response of GINS cells to the agent, dynamic GSIS", "setting": "GINS organoids [1]", "result": "responded robustly"}]}, {"smiles": "CC1=NS(=O)(=O)c2cc(Cl)ccc2N1", "note": "[Diazoxide]", "values": [{"measurement": "insulin secretion response of GINS organoids to the drug", "setting": "GINS organoids [2]", "result": "responded"}]}, {"smiles": "C[C@@H](N)[C@H]1CC[C@H](C(=O)Nc2ccncc2)CC1.Cl.Cl", "note": "[Y-27632, trans-4-[(1R)-1-aminoethyl]-N-4-pyridinyl-Cyclohexanecarboxamide, dihydrochloride]", "values": [{"measurement": "INS mRNA levels", "setting": "Ngn3ER/PM-hGSCs; vs no supplement control, dihydrochloride", "result": "significantly promoted; also recorded: significantly up-regulated"}]}, {"smiles": "NC(=O)c1cccnc1", "note": "[Nicotinamide, 3-pyridinecarboxamide]", "values": [{"measurement": "INS mRNA levels", "setting": "Ngn3ER/PM-hGSCs; vs no supplement control", "result": "significantly promoted; also recorded: significantly up-regulated"}]}, {"smiles": "COc1ccc(Cl)cc1C(=O)NCCc1ccc(S(=O)(=O)NC(=O)NC2CCCCC2)cc1", "note": "[Glibenclamide]", "values": [{"measurement": "insulin secretion response of GINS organoids to the drug", "setting": "GINS organoids [2]", "result": "responded"}]}, {"smiles": "Cc1cccc(-c2nn(C(=S)Nc3ccccc3)cc2-c2ccnc3ccccc23)n1", "note": "[A8301, 3-(6-methyl-2-pyridinyl)-N-phenyl-4-(4-quinolinyl)-1H-pyrazole-1-carbothioamide]", "values": [{"measurement": "spontaneous aggregation (clustering) of nascent GINS cells", "setting": "Ngn3ER/PM-hGSCs; mCherry live imaging", "result": "stimulated; also recorded: most observable clustering effect"}, {"measurement": "expression of several key b-cell transcription factors", "setting": "Ngn3ER/PM-hGSCs; qPCR, vs no supplement control", "result": "stimulated"}]}]}
